# Measurements reported in patent US20020137929A1, “1 - (3-heterocyclylphenyl) isothiourea, -isourea, -guanidine and -amidine herbicidal agents” (Intellectual Property Department, BASF Aktiengesellschaft, priority 1998, published 2002).
# How the values were obtained:
# [1] = tested on: ECHORC (Watergrass (Calif.)); experiment: Preemergence weed control under flooded paddy conditions; assay type: in vivo, Echinochloa oryzoides; conditions: rated 3-4 weeks after treatment
# Procedure, shortened: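 Flooded-pot preemergence screen with silt loam and seeds in the upper 0.5 cm. Dose about 0.0313 to 0.500 kg/ha, delivered into flood water; visual 0-9 score after 3 to 4 weeks.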
# [2] = tested on: IPOHE (Morningglory, Ivyleaf); experiment: Postemergence herbicidal evaluation; assay type: in vivo, Ipomoea hederacea; conditions: postemergence
# Procedure, shortened: (§1)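 Compound is applied as a foliar spray to seedlings about two weeks old, formulated in equal parts acetone and water with 0.5% TWEEN 20 and delivered at 40 psi to give about 0.0156–0.500 kg per hectare. Injury is rated visually 0–9 after four to five weeks.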
# [3] = tested on: ORYSAT (Rice, Tebonnet); experiment: Preemergence herbicidal evaluation; assay type: in vivo, Oryza sativa, (L.) Tebonnet; conditions: preemergence, rated 4-5 weeks after treatment, 0-9 scale
# Procedure, shortened: (§2)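 Seeds were mixed with potting soil and planted on about one inch of soil, then sprayed with test compound in aqueous acetone at about 0.0156 to 0.500 kg per hectare. Plants grew under standard greenhouse care and were visually rated 0-9 against untreated controls 4-5 weeks post-treatment.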
# [4] = tested on: TRZAWR (Wheat, Winter, cv Riband); experiment: Preemergence herbicidal evaluation; assay type: in vivo, Triticum aestivum; conditions: preemergence, rated 4-5 weeks after treatment, 0-9 scale
# Procedure, shortened: as §2
# [5] = tested on: MOOVA (Monochoria); experiment: Preemergence weed control under flooded paddy conditions; assay type: in vivo, Monochoria vaginalis; conditions: rated 3-4 weeks after treatment
# Procedure, shortened: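 Seeds or propagules sown in top 0.5 cm of silt loam soil, flooded 1.5 to 3 cm above surface throughout. Compound in 50/50 v/v aqueous/acetone pipetted into flood water at about 0.0313 to 0.500 kg/ha. Visual 0-9 rating versus control after three to four weeks in greenhouse.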
# [6] = tested on: ECHCG (Barnyardgrass); experiment: Preemergence herbicidal evaluation; assay type: in vivo, Echinochloa crus-galli; conditions: preemergence, rated 4-5 weeks after treatment, 0-9 scale
# Procedure, shortened: as §2
# [7] = tested on: ECHORC (Watergrass (Calif.)); experiment: Postemergence weed control under flooded paddy conditions; assay type: in vivo, Echinochloa oryzoides; conditions: postemergence weeds, rated 3 to 4 weeks after treatment
# Procedure, shortened: (§3)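 With weeds 3 to 5 cm tall and rice at the 1.5 to 2.5 leaf stage, containers were flooded and water held 1.5 to 3 cm above soil. Compounds in 50/50 v/v aqueous/acetone went into the flood water at about 0.0313 to 0.500 kg/ha a.i. Effects were visually rated 0–9 against controls after three to four weeks in the greenhouse.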
# [8] = tested on: CHEAL (Lambsquarters, Common); experiment: Preemergence herbicidal evaluation; assay type: in vivo, Chenopodium album; conditions: preemergence, rated 4-5 weeks after treatment, 0-9 scale
# Procedure, shortened: as §2
# [9] = tested on: IPOHE (Morningglory, Ivyleaf); experiment: Preemergence herbicidal evaluation; assay type: in vivo, Ipomoea hederacea; conditions: preemergence, rated 4-5 weeks after treatment, 0-9 scale
# Procedure, shortened: as §2
# [10] = tested on: CYPIR (Rice Flatsedge); experiment: Postemergence weed control under flooded paddy conditions; assay type: in vivo, Cyperus iria; conditions: postemergence weeds, rated 3 to 4 weeks after treatment
# Procedure, shortened: as §3
# [11] = tested on: TRZAWR (Wheat, Winter, cv Riband); experiment: Postemergence herbicidal evaluation; assay type: in vivo, Triticum aestivum; conditions: postemergence
# Procedure, shortened: as §1
# [12] = tested on: ABUTH (Velvetleaf); experiment: Postemergence herbicidal evaluation; assay type: in vivo, Abutilon theophrasti; conditions: postemergence
# Procedure, shortened: as §1
# [13] = tested on: SETVI (Foxtail, Green); experiment: Preemergence herbicidal evaluation; assay type: in vivo, Setaria viridis; conditions: preemergence, rated 4-5 weeks after treatment, 0-9 scale
# Procedure, shortened: as §2
structure (smiles),measurement,setting,value
"C=CCN1C(=O)C(CC(=O)NC)SC1=Nc1cc(-n2c(=O)cc(C(F)(F)F)n(C)c2=O)c(F)cc1Cl (centres unmarked) [Compound 84, 3-Allyl-2-{{2-chloro-5-[3,6-dihydro-3-methyl-2,6-dioxo-4-(trifluoromethyl)-1(2H)-pyrimidinyl]-4-fluorophenyl}imino}-N-methyl-4-oxo-5-thiazolidineacetamide]",ECHORC herbicidal effect rating,[1]; 0.0313 kg/ha,4.0
same,ECHORC herbicidal effect rating,[1]; 0.0625 kg/ha,5.0
same,ECHORC herbicidal effect rating,[1]; 0.1250 kg/ha,7.0
same,ECHORC herbicidal effect rating,[1]; 0.2500 kg/ha,9.0
same,IPOHE herbicidal rating,[2]; rate 0.0156 kg/ha,9.0
same,IPOHE herbicidal rating,[2]; rate 0.0313 kg/ha,9.0
same,IPOHE herbicidal rating,[2]; rate 0.0625 kg/ha,9.0
same,IPOHE herbicidal rating,[2]; rate 0.1250 kg/ha,9.0
same,ORYSAT rating,[3]; 0.0156 kg/ha,0.0
same,ORYSAT rating,[3]; 0.0313 kg/ha,0.0
same,ORYSAT rating,[3]; 0.0625 kg/ha,0.0
same,ORYSAT rating,[3]; 0.1250 kg/ha,0.0
same,ORYSAT rating,[3]; 0.2500 kg/ha,3.0
same,ORYSAT rating,[3]; 0.5000 kg/ha,9.0
same,TRZAWR rating,[4]; 0.0156 kg/ha,0.0
same,TRZAWR rating,[4]; 0.0313 kg/ha,0.0
same,TRZAWR rating,[4]; 0.0625 kg/ha,0.0
same,TRZAWR rating,[4]; 0.1250 kg/ha,4.0
same,TRZAWR rating,[4]; 0.2500 kg/ha,6.0
same,TRZAWR rating,[4]; 0.5000 kg/ha,9.0
same,MOOVA herbicidal effect rating,[5]; 0.0313 kg/ha,9.0
same,MOOVA herbicidal effect rating,[5]; 0.0625 kg/ha,9.0
same,MOOVA herbicidal effect rating,[5]; 0.1250 kg/ha,9.0
same,MOOVA herbicidal effect rating,[5]; 0.2500 kg/ha,9.0
same,ECHCG rating,[6]; 0.0156 kg/ha,0.0
same,ECHCG rating,[6]; 0.0313 kg/ha,0.0
same,ECHCG rating,[6]; 0.0625 kg/ha,0.0
same,ECHCG rating,[6]; 0.1250 kg/ha,0.0
same,ECHCG rating,[6]; 0.2500 kg/ha,2.0
same,ECHCG rating,[6]; 0.5000 kg/ha,9.0
same,Herbicidal rating ECHORC,[7]; Rate 0.0313 kg/ha,4.0
same,Herbicidal rating ECHORC,[7]; Rate 0.0625 kg/ha,5.0
same,Herbicidal rating ECHORC,[7]; Rate 0.1250 kg/ha,7.0
same,Herbicidal rating ECHORC,[7]; Rate 0.2500 kg/ha,9.0
same,CHEAL rating,[8]; 0.0156 kg/ha,5.0
same,CHEAL rating,[8]; 0.0313 kg/ha,9.0
same,CHEAL rating,[8]; 0.0625 kg/ha,9.0
same,CHEAL rating,[8]; 0.1250 kg/ha,9.0
same,CHEAL rating,[8]; 0.2500 kg/ha,9.0
same,CHEAL rating,[8]; 0.5000 kg/ha,9.0
same,IPOHE rating,[9]; 0.0156 kg/ha,0.0
same,IPOHE rating,[9]; 0.0313 kg/ha,0.0
same,IPOHE rating,[9]; 0.0625 kg/ha,0.0
same,IPOHE rating,[9]; 0.1250 kg/ha,1.0
same,IPOHE rating,[9]; 0.2500 kg/ha,9.0
same,IPOHE rating,[9]; 0.5000 kg/ha,9.0
same,Herbicidal rating CYPIR,[10]; Rate 0.0313 kg/ha,3.0
same,Herbicidal rating CYPIR,[10]; Rate 0.0625 kg/ha,7.0
same,Herbicidal rating CYPIR,[10]; Rate 0.1250 kg/ha,9.0
same,Herbicidal rating CYPIR,[10]; Rate 0.2500 kg/ha,9.0
same,TRZAWR herbicidal rating,[11]; rate 0.0156 kg/ha,3.0
same,TRZAWR herbicidal rating,[11]; rate 0.0313 kg/ha,3.5
same,TRZAWR herbicidal rating,[11]; rate 0.0625 kg/ha,4.5
same,TRZAWR herbicidal rating,[11]; rate 0.1250 kg/ha,5.0
same,ABUTH herbicidal rating,[12]; rate 0.0156 kg/ha,9.0
same,ABUTH herbicidal rating,[12]; rate 0.0313 kg/ha,9.0
same,ABUTH herbicidal rating,[12]; rate 0.0625 kg/ha,9.0
same,ABUTH herbicidal rating,[12]; rate 0.1250 kg/ha,9.0
same,SETVI rating,[13]; 0.0156 kg/ha,0.0
same,SETVI rating,[13]; 0.0313 kg/ha,0.0
same,SETVI rating,[13]; 0.0625 kg/ha,0.0
same,SETVI rating,[13]; 0.1250 kg/ha,3.0
same,SETVI rating,[13]; 0.2500 kg/ha,9.0
same,SETVI rating,[13]; 0.5000 kg/ha,9.0
"C=CCN1C(=O)C(CC(=O)OCCF)SC1=Nc1cc(-n2c(=O)cc(C(F)(F)F)n(C)c2=O)c(F)cc1Cl (centres unmarked) [Compound 86, 2-Fluoroethyl 3-allyl-2-{{2-chloro-5-[3,6-dihydro-3-methyl-2,6-dioxo-4-(trifluoromethyl)-1(2H)-pyrimidinyl]-4-fluorophenyl}imino}-4-oxo-5-thiazolidineacetate]",ECHORC herbicidal effect rating,[1]; 0.0313 kg/ha,5.0
same,ECHORC herbicidal effect rating,[1]; 0.0625 kg/ha,6.0
same,ECHORC herbicidal effect rating,[1]; 0.1250 kg/ha,9.0
same,ECHORC herbicidal effect rating,[1]; 0.2500 kg/ha,9.0
same,IPOHE herbicidal rating,[2]; rate 0.0156 kg/ha,9.0
same,IPOHE herbicidal rating,[2]; rate 0.0313 kg/ha,9.0
same,IPOHE herbicidal rating,[2]; rate 0.0625 kg/ha,9.0
same,IPOHE herbicidal rating,[2]; rate 0.1250 kg/ha,9.0
same,ORYSAT rating,[3]; 0.0156 kg/ha,0.0
same,ORYSAT rating,[3]; 0.0313 kg/ha,0.0
same,ORYSAT rating,[3]; 0.0625 kg/ha,0.0
same,ORYSAT rating,[3]; 0.1250 kg/ha,0.0
same,ORYSAT rating,[3]; 0.2500 kg/ha,2.0
same,ORYSAT rating,[3]; 0.5000 kg/ha,6.0
same,TRZAWR rating,[4]; 0.0156 kg/ha,0.0
same,TRZAWR rating,[4]; 0.0313 kg/ha,0.0
same,TRZAWR rating,[4]; 0.0625 kg/ha,0.0
same,TRZAWR rating,[4]; 0.1250 kg/ha,0.0
same,TRZAWR rating,[4]; 0.2500 kg/ha,2.0
same,TRZAWR rating,[4]; 0.5000 kg/ha,6.0
same,MOOVA herbicidal effect rating,[5]; 0.0313 kg/ha,9.0
same,MOOVA herbicidal effect rating,[5]; 0.0625 kg/ha,9.0
same,MOOVA herbicidal effect rating,[5]; 0.1250 kg/ha,9.0
same,MOOVA herbicidal effect rating,[5]; 0.2500 kg/ha,9.0
same,ECHCG rating,[6]; 0.0156 kg/ha,0.0
same,ECHCG rating,[6]; 0.0313 kg/ha,0.0
same,ECHCG rating,[6]; 0.0625 kg/ha,0.0
same,ECHCG rating,[6]; 0.1250 kg/ha,0.0
same,ECHCG rating,[6]; 0.2500 kg/ha,0.0
same,ECHCG rating,[6]; 0.5000 kg/ha,4.0
same,Herbicidal rating ECHORC,[7]; Rate 0.0313 kg/ha,5.0
same,Herbicidal rating ECHORC,[7]; Rate 0.0625 kg/ha,6.0
same,Herbicidal rating ECHORC,[7]; Rate 0.1250 kg/ha,9.0
same,Herbicidal rating ECHORC,[7]; Rate 0.2500 kg/ha,9.0
same,CHEAL rating,[8]; 0.0156 kg/ha,4.0
same,CHEAL rating,[8]; 0.0313 kg/ha,4.0
same,CHEAL rating,[8]; 0.0625 kg/ha,9.0
same,CHEAL rating,[8]; 0.1250 kg/ha,9.0
same,CHEAL rating,[8]; 0.2500 kg/ha,9.0
same,CHEAL rating,[8]; 0.5000 kg/ha,9.0
same,IPOHE rating,[9]; 0.0156 kg/ha,0.0
same,IPOHE rating,[9]; 0.0313 kg/ha,0.0
same,IPOHE rating,[9]; 0.0625 kg/ha,8.0
same,IPOHE rating,[9]; 0.1250 kg/ha,9.0
same,IPOHE rating,[9]; 0.2500 kg/ha,9.0
same,IPOHE rating,[9]; 0.5000 kg/ha,9.0
same,Herbicidal rating CYPIR,[10]; Rate 0.0313 kg/ha,3.0
same,Herbicidal rating CYPIR,[10]; Rate 0.0625 kg/ha,7.0
same,Herbicidal rating CYPIR,[10]; Rate 0.1250 kg/ha,8.0
same,Herbicidal rating CYPIR,[10]; Rate 0.2500 kg/ha,9.0
same,TRZAWR herbicidal rating,[11]; rate 0.0156 kg/ha,6.0
same,TRZAWR herbicidal rating,[11]; rate 0.0313 kg/ha,7.0
same,TRZAWR herbicidal rating,[11]; rate 0.0625 kg/ha,7.5
same,TRZAWR herbicidal rating,[11]; rate 0.1250 kg/ha,8.5
same,ABUTH herbicidal rating,[12]; rate 0.0156 kg/ha,9.0
same,ABUTH herbicidal rating,[12]; rate 0.0313 kg/ha,9.0
same,ABUTH herbicidal rating,[12]; rate 0.0625 kg/ha,9.0
same,ABUTH herbicidal rating,[12]; rate 0.1250 kg/ha,9.0
same,SETVI rating,[13]; 0.0156 kg/ha,0.0
same,SETVI rating,[13]; 0.0313 kg/ha,0.0
same,SETVI rating,[13]; 0.0625 kg/ha,4.0
same,SETVI rating,[13]; 0.1250 kg/ha,8.0
same,SETVI rating,[13]; 0.2500 kg/ha,9.0
same,SETVI rating,[13]; 0.5000 kg/ha,9.0
